Assay results published in ChEMBL document CHEMBL1130649, “Rational design of a new series of mixed anti-HIV pronucleotides” (Bioorg Med Chem Lett, 1998).

Columns and labels:
CEM-SS [1] = assay: Compound was tested for inhibitory activity against HIV-1 replication in CEM-SS cells; format: functional, cell-based; conditions: Homo sapiens
CEM-SS [2] = assay: Compound was tested for cytotoxicity against HIV-1 in CEM-SS cells; format: functional; conditions: Homo sapiens
CCRF-CEM [3] = assay: Compound was tested for inhibitory activity against HIV-1 replication in CEM/TK- cells; format: functional, cell-based; conditions: Homo sapiens
CCRF-CEM [4] = assay: Compound was tested for cytotoxicity against HIV-1 in CEM/TK- cells; format: functional; conditions: Homo sapiens
[5] = Half-life in total CEM cell extract at Step 1; format: ADME, CCRF-CEM; conditions: human
[6] = Half-life in RPMI 1640 containing 10% heat inactivated fetal calf serum culture medium at step 1; format: ADME, Bos taurus; conditions: cattle

SMILES | IC50 (CEM-SS [1]) [nM] | CC50 (CEM-SS [2]) [µM] | IC50 (CCRF-CEM [3]) [µM] | CC50 (CCRF-CEM [4]) [µM] | half-life [5] [min] | half-life [6] [days]
Cc1cn([C@H]2C[C@H](N=[N+]=[N-])[C@@H](CO)O2)c(=O)[nH]c1=O [ZIDOVUDINE] | 6 | > 100 | > 100 | > 100 | – | –
Cc1cn([C@H]2C[C@H](N=[N+]=[N-])[C@@H](COP(=O)(OCCSC(=O)C(C)(C)C)Oc3ccc(CC(N)C(=O)O)cc3)O2)c(=O)[nH]c1=O.Cl (stereo partly specified) | 6 | > 90 | 29 | 90 | 84 | 3.6
Cc1cn([C@H]2C[C@H](N=[N+]=[N-])[C@@H](COP(=O)(OCCSC(=O)C(C)(C)C)Oc3ccccc3)O2)c(=O)[nH]c1=O (stereo partly specified) | 1 | > 10 | 3.5 | > 10 | 72 | 3
